We go through three molecules from patent US20230220063A1, “IL-1BETA BINDING ANTIBODIES FOR USE IN TREATING CANCER” (NOVARTIS AG, priority 2017, published 2023).

One data set relates to hsCRP. Kind of data set: Gevokizumab: hsCRP change in type 2 diabetes patients. The format is in vivo, human. The note with it: top dose 0.3 mg/kg (~20 mg) Q4W.
A short description of data set [1]: Gevokizumab clinical pharmacokinetics. Format: in vivo, human.
The test system of data set [2] is vasculature in trabecular bone. Kind of data set: Blocking IL-1β signalling: blood vessels in the bone microenvironment of mice. The format is in vivo. The method, then:
Vasculature was visualised following CD34 and endomucin immunohistochemistry and the concentration of vascular endothelial growth factor (VEGF) and endothelin-1 in serum and/or bone marrow was determined by ELISA. Effects on bone volume were measured by Micro computed tomography (uCT).
(§1) Tumor cells, serum, and bone were subsequently resected for downstream analysis.

The test system of data set [3] is MDA-MB-231 Luc2-TdTomato cells. In words: Spontaneous human breast cancer metastasis to human bone implants in NOD SCID mice. Format: in vivo. The method, then:
To model human breast cancer metastasis to human bone implants two human bone discs were implanted subcutaneously into 10-week old female NOD SCID mice (n=10/group) under isofluorane anaesthetic. Mice received an injection of 0.003 mg vetergesic and Septrin was added to the drinking water for 1 week following bone implantation. Mice were left for 4 weeks before injecting 1×10^5 MDA-MB-231 Luc2-TdTomato, MCF7 Luc2 or T47D Luc2 cells in 20% Martigel/79% PBS/1% […] into the two hind mammary fat pads. Primary tumor growth and development of metastases was monitored weekly using an IVIS […] system (Caliper Life Sciences) following sub-cutaneous injection of 30 mg/ml D-luciferin (Invitrogen). On termination of experiments mammary tumors, circulating tumor cells, serum and bone metastases were resected. RNA was processed for downstream analysis by real time PCR, and cell lysates were taken for protein analysis and whole tissue for histology as previously described (Nutter et al., 2014; Ottewell et al., 2014a).
as §1
Whole blood was centrifuged at 10,000 g for 5 minutes and the serum removed for ELISA assays. The cell pellet was re-suspended in 5 ml of FSM lysis solution (Sigma-Aldrich, Pool, UK) to lyse red blood cells. Remaining cells were re-pelleted, washed 3x in PBS and re-suspended in a solution of PBS/10% FCS. Samples from 10 mice per group were pooled prior to isolation of TdTomato positive tumor cells using a MoFlow High performance cell sorter (Beckman Coulter, Cambridge UK) with the […] laser line from a Coherent I-90C tenable argon ion (Coherent, Santa Clara, CA). TdTomato fluorescence was detected by a 555LP dichroic long pass and a 580/30 nm band pass filter. Acquisition and analysis of cells was performed using Summit 4.3 software. Following sorting cells were immediately placed in RNA protect cell reagent (Ambion, Paisley, Renfrew, UK) and stored at -80° C. before RNA extraction.

The test system of data set [4] is patient-derived breast cancer cells. In words: Breast CSC mammosphere colony formation after exposure to human bone marrow in vitro. The format is cell-based. An excerpt:
(§2) Dissemination of tumour cells to bone marrow is an early event in breast cancer, however these cells may lie dormant in the bone environment for many years prior to eventual colonisation. Treatment for bone metastases is not curative, therefore new adjuvant therapies preventing disseminated cells from becoming metastatic lesions may be an effective therapeutic option to improve clinical outcomes. There is evidence that cancer stemcells (CSCs) within breast tumours are the cells capable of metastasis; however, little is known about which bone marrow-derived factors support dormant CSC survival and eventual colonisation. Using in vitro culture of primary human bone marrow and patient-derived breast cancer cells, and in vivo metastasis models of human breast cancer cells implanted into mice, we investigated signalling pathways regulating CSC colony formation in bone.
(§3) Dissemination of tumour cells to bone marrow is an early event in breast cancer, but these cells may lie dormant in the bone environment for many years before the development of clinical bone metastases. There is evidence that cancer stem cells (CSCs) within breast tumours are the cells capable of metastasis, but the effect of the bone environment on the regulation of CSCs has not been investigated. […] CSC activity following isolation from the bone environment was measured using mammosphere colony formation.

In data set [5] the test system is human breast cancer cells. In words: Spontaneous bone metastasis of human breast cancer cells implanted into mice. The note with it: mouse.
Description: as §2, §3

As to “gevokizumab: high-affinity, humanized monoclonal antibody of the IgG2 isotype to interleukin-1β; INN number 9310; allosteric inhibitor”, the “reduction of hsCRP” value with hsCRP was “up to 45%”. In addition, in data set [1] (administered subcutaneously), the Bioavailability result is “about 56%”. For the same molecule, the half-life entry in data set [1] (human, in vivo) is “about 35 days”.
On to “Anakinra: IL-1 receptor antagonist, clinically available recombinant form of the receptor antagonist”, for which the “average length of new blood vessels” value in data set [2] (1 mg/kg for 21/31 days) was “downwards trend”. In data set [2] (compared with control), the “endothelin 1 and VEGF in the bone marrow (ELISA)” value is listed as “reduced concentrations”. In addition, the “decrease in VEGF concentration” value in data set [2] (mice treated with 1 mg/kg for 21 days) came out at 22%. The “decrease in the concentration of endothelin-1” value in data set [2] (mice treated with 1 mg/kg for 31 days) is recorded as 69%. Further, the “average length of CD34^+ blood vessels in trabecular bone” value in data set [2] (p < 0.01 vs control) was “reduced the average length of CD34^+ blood vessels”. Further, in data set [3] (1 mg/kg IL-1Ra daily or 10 mg/kg canakinumab s.c. every 14 days from day 7, control 7 out of 10), the “mice with metastasis detected in human bone implants” value is 4 out of 10. For the same molecule, in data set [3] (Placebo 3.60E+06), the “bone metastasis, photons/sec mean values” is given as 4.83E+04 photons/sec. Also, in data set [3] (compared with control group), the “size of bone metastases” value is listed as “smaller than those detected in the control group”. In data set [3] (mouse, in vivo), the “bone turnover and neovascularisation” value is “reduced bone turnover and neovascularisation”; the “onset of breast cancer metastasis in human bone” value was “delayed onset of breast cancer metastasis in human bone”. Besides, the primary tumour growth entry in data set [3] (murine model of spontaneous human breast cancer metastasis to human bone) is “without affecting the development of primary breast cancer”. In data set [3] (placebo 108 tumor cells/ml), the “tumor cells counted in whole blood” value is 3 tumor cells/ml. The “induction of CSC activity by the bone marrow in vitro” value in data set [4] was “reverses induction of CSC activity”.

B1: Vantictumab: a therapeutic antibody which binds 5/10 Frizzled receptors (anti-Wnt) (antibody, chains of the INN, looked up, V domains shown)
VH: EVQLVESGGGLVQPGGSLRLSCAASGFTFSHYTLSWVRQAPGKGLEWVSVISGDGSYTYYADSVKGRFTISSDNSKNTLYLQMNSLRAEDTAVYYCARNFIKYVFANWGQGTLVTVSS
VL: DIELTQPPSVSVAPGQTARISCSGDNIGSFYVHWYQQKPGQAPVLVIYDKSNRPSGIPERFSGSNSGNTATLTISGTQAEDEADYYCQSYANTLSLVFGGGTKLTVL
As to B1, the “induction of CSC activity by the bone marrow in vitro” value in data set [4] is “reverses induction of CSC activity”. The “spontaneous bone metastasis in vivo” value in data set [5] is recorded as “prevents spontaneous bone metastasis”.
